Consider 15 molecules from patent US20260055121A1, “TYK2 INHIBITORS AND USES THEREOF” (Sudo Biosciences Limited, priority 2022, published 2026).

A value given as a limit tells only on which side of the number the result lay.

The target of assay [1] is T1, TYK2 Pseudokinase (JH2) (Homo sapiens, UniProt P29597).
T1 construct: HEK-Blue™ IL-23 and IFNα/0 cells with a stably-integrated cytokine receptor and STAT3 or STAT1; endogenous in cells; host or cells: HEK-Blue IL-23 and HEK-Blue IFNα/β reporter cells
T1 sequence (P29597 whole entry): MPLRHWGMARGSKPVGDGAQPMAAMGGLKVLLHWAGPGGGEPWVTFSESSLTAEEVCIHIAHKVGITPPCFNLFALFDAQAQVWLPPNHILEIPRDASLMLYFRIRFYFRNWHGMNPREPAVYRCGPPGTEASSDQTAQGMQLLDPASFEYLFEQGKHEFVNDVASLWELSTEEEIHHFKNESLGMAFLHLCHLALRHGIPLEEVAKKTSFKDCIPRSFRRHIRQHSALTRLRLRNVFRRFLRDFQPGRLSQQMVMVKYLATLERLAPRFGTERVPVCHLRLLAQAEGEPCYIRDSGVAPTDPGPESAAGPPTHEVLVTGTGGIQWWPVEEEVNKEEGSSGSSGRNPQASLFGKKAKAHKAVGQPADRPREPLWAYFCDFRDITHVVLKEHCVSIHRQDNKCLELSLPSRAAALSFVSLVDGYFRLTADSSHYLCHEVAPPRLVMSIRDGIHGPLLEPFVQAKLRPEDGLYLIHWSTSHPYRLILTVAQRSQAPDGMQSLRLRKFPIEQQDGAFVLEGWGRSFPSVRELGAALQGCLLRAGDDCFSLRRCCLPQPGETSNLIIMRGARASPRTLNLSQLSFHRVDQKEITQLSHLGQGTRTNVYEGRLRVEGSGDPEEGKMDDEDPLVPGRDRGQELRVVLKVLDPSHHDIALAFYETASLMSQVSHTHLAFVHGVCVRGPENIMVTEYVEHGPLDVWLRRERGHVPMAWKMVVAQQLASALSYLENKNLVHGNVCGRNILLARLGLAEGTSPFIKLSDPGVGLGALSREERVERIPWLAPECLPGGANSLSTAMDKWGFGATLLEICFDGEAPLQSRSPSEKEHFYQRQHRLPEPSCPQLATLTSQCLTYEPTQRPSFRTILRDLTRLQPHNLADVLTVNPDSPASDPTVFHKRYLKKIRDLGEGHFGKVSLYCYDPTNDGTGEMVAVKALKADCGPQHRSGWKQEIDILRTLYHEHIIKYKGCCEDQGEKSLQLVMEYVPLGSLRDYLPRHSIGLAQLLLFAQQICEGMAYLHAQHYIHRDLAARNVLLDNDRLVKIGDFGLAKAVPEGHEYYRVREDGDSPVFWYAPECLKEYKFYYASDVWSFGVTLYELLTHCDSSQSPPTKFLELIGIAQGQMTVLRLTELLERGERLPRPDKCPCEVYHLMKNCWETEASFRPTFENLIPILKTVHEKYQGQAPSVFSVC
The assay can be described thus: HEK-Blue IFNα/β reporter assay (STAT1-inducible SEAP) for profiling TYK2 pseudokinase (JH2) inhibition. The class given is cell-based. The settings on record: HEK-Blue IFNα/β cells, 1 ng/mL human recombinant IFNα, SEAP readout. How it is done:
(§1) HEK-Blue™ IL-23 and IFNα/0 cells with a stably-integrated cytokine receptor and STAT3 or STAT1 express STAT-inducible secreted embryonic alkaline phosphatase (SEAP) reporter gene upon cytokine stimulation. These cells are plated in DMEM (Gibco) containing 10% heat-inactivated FBS (Gibco) and 100 U/mL PenStrep (Gibco) at 37° C. under 5% CO2 conditions for 20-22 hours. The cells are then pretreated with serially diluted test compounds for 60 min prior to stimulation with either 10 ng/mL human recombinant IL-23 (Miltenyl Biotech) or 1 ng/mL human recombinant IFNα (InvivoGen) for 22-24 hours for IL-23 or 16-18 h for IFNα. SEAP induction is measured using the QUANTI Blue™ Solution (InvivoGen) according to the manufacturer's instructions.

In assay [2] the target is T1, TYK2 Pseudokinase (JH2). The assay can be described thus: HEK-Blue IL-23 reporter assay (STAT3-inducible SEAP) for profiling TYK2 pseudokinase (JH2) inhibition. In kind it is cell-based. As to conditions: HEK-Blue IL-23 cells, 10 ng/mL human recombinant IL-23, SEAP readout; read-out: IL23. How it is done:
as §1

The target in the next assay is T2, JAK1-JH1 (Homo sapiens, UniProt P23458).
T2 construct: recombinant purified His or GST-tagged catalytic domain for each enzyme; made in house
T2 sequence (P23458 875-1153 limits assumed): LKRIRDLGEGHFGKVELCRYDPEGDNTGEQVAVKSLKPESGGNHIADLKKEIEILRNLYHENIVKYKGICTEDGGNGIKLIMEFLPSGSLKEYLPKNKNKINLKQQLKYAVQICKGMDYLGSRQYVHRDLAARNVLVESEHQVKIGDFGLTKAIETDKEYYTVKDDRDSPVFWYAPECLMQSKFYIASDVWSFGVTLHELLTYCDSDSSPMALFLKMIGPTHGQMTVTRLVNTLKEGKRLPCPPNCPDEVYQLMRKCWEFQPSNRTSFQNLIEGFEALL
The assay can be described thus: HTRF-based selectivity assay, JAK1 catalytic domain. As to conditions: kinase domain (JH1), 21.43 μM ATP. The class given is biochemical. How it is done:
The ability of compounds to inhibit the activity of JAK1, JAK2, JAK3 and TYK2 is measured using a recombinant purified His or GST-tagged catalytic domain for each enzyme (JAK1, JAK2 and TYK2 are generated in-house; JAK3 was purchased from Carna biosciences, Cat #08-046) in an HTRF format biochemical assay. The reactions employs a commercial peptide substrate from Cisbio (Cat #62TK0PEC). The basic assay protocol is as follows: first, 2.5 μL of diluted compounds (4×) in DMSO are dispensed into a 384-well Optiplate. Next, 2.5 μL of enzyme (final concentrations for enzymes are: TYK2- 700 ng/mL, JAK1- 80.6 ng/mL, JAK2- 2.1 ng/mL and JAK3- 171.8 ng/mL) is added and incubated at RT for 5-20 min. Finally, 5 μl of mixture of 2×ATP [Final concentration 20 μM for TYK2, 21.43 μM for JAK1, 14.7 μM for JAK2 and 2.12 μM for JAK3]^+2× Substrate [Final concentration 217 nM for TYK2, 454.7 nM for JAK1, 200 nM for JAK2 and 257.4 nM for JAK3] is added to 384 well Optiplate. Composition of Kinase assay buffer used in the assay is as follows: HEPES 50 mM, EGTA 1 mM, MgCl2 10 mM, DTT 2 mM, Tween-20 0.01% and water. Then the plates are shaken and then incubated at 26.5° C. for 60 min.
On the technique in general: In TR-FRET formats the signal depends on donor and acceptor labels being close together.

In the next assay the test system is IL-2. As to the kind of experiment: HEK-Blue IL-2 reporter assay (STAT5-inducible SEAP) for determining selectivity. As to conditions: HEK-Blue IL-2 reporter cells, 4 ng/mL human recombinant IL-2, SEAP readout. In kind it is cell-based. How it is done: (§2) HEK-Blue™ IL-2 and IFNγ reporter cells with a stably-integrated cytokine receptor and STAT5 or STAT1 express STAT-inducible secreted embryonic alkaline phosphatase (SEAP) reporter gene upon cytokine stimulation. These cells were plated in DMEM (Gibco) containing 10% heat-inactivated FBS (Gibco) and 100 U/mL PenStrep (Gibco) at 37° C. under 5% CO2 conditions for 20-22 hours. The cells were then pretreated with serially diluted test compounds for 60 min prior to stimulation with either 4 ng/mL human recombinant TL-2 (Miltenyl Biotech) or 50 ng/mL human recombinant IFNγ (InvivoGen) for 24 hours. SEAP induction was measured using the QUANTI-Blue™ Solution (InvivoGen) according to the manufacturer's instructions.

The next assay concerns IFN-γ. As to the kind of experiment: HEK-Blue IFNγ reporter assay (STAT1-inducible SEAP) for determining selectivity. The class given is cell-based. As to conditions: HEK-Blue IFNγ reporter cells, 50 ng/mL human recombinant IFNγ, SEAP readout. How it is done:
as §2
A general note: A reporter such as luciferase makes a cellular process visible.

As for `CCONC(=O)c1nnc(NC(=O)C2CC2)cc1Nc1nccc2c1N(C)[C@@H](C)c1nn(C)nc1-2` (single isomer, unassigned) [Compound 16], the IC50 at TYK2 Pseudokinase (JH2) [1] and on TYK2 Pseudokinase (JH2) [2] was under 30 nM each time.
In the case of `Cn1cc2c(n1)-c1cccc(Nc3cc(NC(=O)C4CC4)nc4[nH]n(C)c(=O)c34)c1OC2` [Compound 1, N-(2-methyl-4-((2-methyl-2,4-dihydrochromeno[4,3-c]pyrazol-6-yl)amino)-3-oxo-2,3-dihydro-1H-pyrazolo[3,4-b]pyridin-6-yl)cyclopropanecarboxamide], the results for the IC50 on TYK2 Pseudokinase (JH2) [2] and at JAK1-JH1 were 300 to 1000 nM and over 1000 nM, respectively.
As to `CN1Cc2cn(C)nc2-c2cccc(Nc3cc(NC(=O)C4CC4)nc4[nH]n(C)c(=O)c34)c21` [Compound 2, N-(4-((2,5-dimethyl-4,5-dihydro-2H-pyrazolo[4,3-c]quinolin-6-yl)amino)-2-methyl-3-oxo-2,3-dihydro-1H-pyrazolo[3,4-b]pyridin-6-yl)cyclopropanecarboxamide], the figures for the IC50 on TYK2 Pseudokinase (JH2) [1], at TYK2 Pseudokinase (JH2) [2] and on JAK1-JH1 were under 30 nM, under 30 nM and over 1000 nM, respectively.
As for `Cc1nc2n(n1)-c1cccc(Nc3cc(NC(=O)C4CC4)nc4[nH]n(C)c(=O)c34)c1N(C)[C@H]2C` [Compound 3, (S)—N-(2-methyl-3-oxo-4-((2,4,5-trimethyl-4,5-dihydro-[1,2,4]triazolo[1,5-a]quinoxalin-6-yl)amino)-2,3-dihydro-1H-pyrazolo[3,4-b]pyridin-6-yl)cyclopropanecarboxamide], the IC50 on TYK2 Pseudokinase (JH2) [1] was 30 to 300 nM; on TYK2 Pseudokinase (JH2) [2], under 30 nM; with IL-2, over 1000 nM; in the assay on IFN-γ, over 1000 nM.
For the molecule `[2H]C([2H])([2H])NC(=O)c1c(Nc2cccc3c2N(C)[C@@H](C)c2nc(C)nn2-3)cc(NC(=O)C2CC2)nc1N` [Compound 4, (S)-2-amino-6-(cyclopropanecarboxamido)-N-(methyl-d3)-4-((2,4,5-trimethyl-4,5-dihydro-[1,2,4]triazolo[1,5-a]quinoxalin-6-yl)amino)nicotinamide], the IC50 at TYK2 Pseudokinase (JH2) [1] and at TYK2 Pseudokinase (JH2) [2] was over 1000 nM throughout.
On to `CNC(=O)c1cnc2[nH]ccc2c1Nc1cccc2c1N(C)CCn1cnnc1-2` [Compound 6, N-methyl-4-((7-methyl-6,7-dihydro-5H-benzo[f][1,2,4]triazolo[4,3-d][1,4]diazepin-8-yl)amino)-1H-pyrrolo[2,3-b]pyridine-5-carboxamide], for which the IC50 at TYK2 Pseudokinase (JH2) [1] and on TYK2 Pseudokinase (JH2) [2] was over 1000 nM each time.
Take `CNC(=O)c1cnc2[nH]ccc2c1Nc1cccc2c1N(C)Cc1cn(C)nc1-2` [Compound 7, 4-((2,5-dimethyl-4,5-dihydro-2H-pyrazolo[4,3-c]quinolin-6-yl)amino)-N-methyl-1H-pyrrolo[2,3-b]pyridine-5-carboxamide]: the IC50 on TYK2 Pseudokinase (JH2) [1] and at TYK2 Pseudokinase (JH2) [2] was over 1000 nM throughout.
Consider `CONC(=O)c1cnc(NC(=O)C2CC2)cc1Nc1cccc2c1N(C)[C@@H](C)c1nc(C)nn1-2` [Compound 8, (S)-6-(cyclopropanecarboxamido)-N-methoxy-4-((2,4,5-trimethyl-4,5-dihydro-[1,2,4]triazolo[1,5-a]quinoxalin-6-yl)amino)nicotinamide], for which the IC50 at TYK2 Pseudokinase (JH2) [1] is 30 to 300 nM; on TYK2 Pseudokinase (JH2) [2], under 30 nM.
In the same order, the values of `CCONC(=O)c1cnc(NC(=O)C2CC2)cc1Nc1cccc2c1N(C)[C@@H](C)c1nc(C)nn1-2` [Compound 9, (S)-6-(cyclopropanecarboxamido)-N-ethoxy-4-((2,4,5-trimethyl-4,5-dihydro-[1,2,4]triazolo[1,5-a]quinoxalin-6-yl)amino)nicotinamide] are under 30 nM and under 30 nM.
As to `CONC(=O)c1nnc(NC(=O)C2CC2)cc1Nc1cccc2c1N(C)[C@@H](C)c1nc(C)nn1-2` [Compound 10, (S)-6-(cyclopropanecarboxamido)-N-methoxy-4-((2,4,5-trimethyl-4,5-dihydro-[1,2,4]triazolo[1,5-a]quinoxalin-6-yl)amino)pyridazine-3-carboxamide], the figures for the IC50 on TYK2 Pseudokinase (JH2) [1] and at TYK2 Pseudokinase (JH2) [2] were 30 to 300 nM and under 30 nM, respectively.
`CONC(=O)c1nnc(Nc2ccc(F)cn2)cc1Nc1cccc2c1N(C)[C@@H](C)c1nc(C)nn1-2` [Compound 11, (S)-6-((5-fluoropyridin-2-yl)amino)-N-methoxy-4-((2,4,5-trimethyl-4,5-dihydro-[1,2,4]triazolo[1,5-a]quinoxalin-6-yl)amino)pyridazine-3-carboxamide]: the IC50 at TYK2 Pseudokinase (JH2) [1] and at TYK2 Pseudokinase (JH2) [2] was under 30 nM each time.
For the molecule `CONC(=O)c1nnc(Nc2cc(C)nc(C)n2)cc1Nc1cccc2c1N(C)[C@@H](C)c1nc(C)nn1-2` [Compound 12, (S)-6-((2,6-dimethylpyrimidin-4-yl)amino)-N-methoxy-4-((2,4,5-trimethyl-4,5-dihydro-[1,2,4]triazolo[1,5-a]quinoxalin-6-yl)amino)pyridazine-3-carboxamide], the IC50 at TYK2 Pseudokinase (JH2) [1] and on TYK2 Pseudokinase (JH2) [2] was under 30 nM each time.
For the molecule `CCONC(=O)c1nnc(NC(=O)C2CC2)cc1Nc1cccc2c1N(C)[C@@H](C)c1nc(C)nn1-2` [Compound 13, (S)-6-(cyclopropanecarboxamido)-N-ethoxy-4-((2,4,5-trimethyl-4,5-dihydro-[1,2,4]triazolo[1,5-a]quinoxalin-6-yl)amino)pyridazine-3-carboxamide], the IC50 was 30 to 300 nM at TYK2 Pseudokinase (JH2) [1] and under 30 nM at TYK2 Pseudokinase (JH2) [2].
The corresponding values for `CCONC(=O)c1nnc(Nc2cc(C)nc(C)n2)cc1Nc1cccc2c1N(C)[C@@H](C)c1nc(C)nn1-2` [Compound 14, (S)-6-((2,6-dimethylpyrimidin-4-yl)amino)-N-ethoxy-4-((2,4,5-trimethyl-4,5-dihydro-[1,2,4]triazolo[1,5-a]quinoxalin-6-yl)amino)pyridazine-3-carboxamide] are under 30 nM and under 30 nM.
On to `CCONC(=O)c1nnc(Nc2ccc(F)cn2)cc1Nc1cccc2c1N(C)[C@@H](C)c1nc(C)nn1-2` [Compound 15, (S)—N-ethoxy-6-((5-fluoropyridin-2-yl)amino)-4-((2,4,5-trimethyl-4,5-dihydro-[1,2,4]triazolo[1,5-a]quinoxalin-6-yl)amino)pyridazine-3-carboxamide], for which the IC50 at TYK2 Pseudokinase (JH2) [1] and on TYK2 Pseudokinase (JH2) [2] was under 30 nM each time.
